Reference: patent US7763728B2, “Tetrahydropyridothiophenes” (4SC AG, priority 2005, dated 2010)

Columns and labels:
[1] = test system: RKO (RKOp27) human colon adenocarcinoma cells; assay: Alamar Blue cell viability assay, anti-proliferative/cytotoxic activity on proliferating (uninduced) RKOp27 cells; type: cell-based; details: 72 hours incubation, absence of the inducer Ponasterone A, read-out: IC50 RKO p27 uninduced (proliferating)
In short: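 RKOp27 subclones seeded at 5000 cells/well, compounds added after 24 h in DMEM/10% FCS, quadruplicates, 72 h at 37 °C, 5% CO2. Alamar Blue fluorescence (ex 544/em 590 nm) normalised to untreated cells (1% DMSO medium) as 100%; IC50 from concentration-effect curves.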

[2] = test system: RKO colon adenocarcinoma cells (RKOp27) arrested by the expression of ectopic p27Kip1; assay: Alamar Blue cell viability assay on RKOp27 cells arrested by p27Kip1 expression induced by Ponasterone A; type: cell-based; details: Homo sapiens, 72 hours incubation, 10 μM Ponasterone A, read-out: IC50 RKO p27 induced (arrested)
In short: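 RKOp27 cells, 15000/well, held in DMEM with 10% FCS and with or without 10 μM Ponasterone A to induce p27Kip1 arrest. Compound dilutions added 24 h after seeding, then 72 h at 37 °C in quadruplicate. Alamar Blue fluorescence (544/590 nm) gave % viability relative to untreated cells.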

Row | SMILES | IC50 [1] [µM] | IC50 [2] [µM]
1 | COc1ccccc1CCC(=O)Nc1sc2c(c1C#N)CCN(C(=O)CCn1cc(C)nc1C)C2 [Example 161, N-{3-Cyano-6-[3-(2,4-dimethyl-imidazol-1-yl)-propanoyl]-4,5,6,7-tetrahydro-thieno[2,3-c]pyridin-2-yl}-3-(2-methoxy-phenyl)-propionamide] | 0.3 to 2 | ≥ 10
2 | COc1cccc(CCC(=O)Nc2sc3c(c2C#N)CCN(C(=O)Cn2cnc(C)c2)C3)c1 [Example 138, N-{3-Cyano-6-[2-(4-methyl-imidazol-1-yl)-ethanoyl]-4,5,6,7-tetrahydro-thieno[2,3-c]pyridin-2-yl}-3-(3-methoxy-phenyl)-propionamide] | 0.3 to 2 | ≥ 40
3 | CCCC(=O)N1CCc2c(sc(NC(=O)CC(C)c3cccc(OC)c3)c2C#N)C1 (racemic) [Example 87, (RS)—N-(6-Butyryl-3-cyano-4,5,6,7-tetrahydro-thieno[2,3-c]pyridin-2-yl)-3-(3-methoxy-phenyl)-butyramide] | 0.3 to 2 | > 100
4 | COc1ccccc1CCC(=O)Nc1sc2c(c1C#N)CCN(C(=O)CCc1ccccn1)C2 [Example 95, N-[3-Cyano-6-(3-pyridin-2-yl-propanoyl)-4,5,6,7-tetrahydro-thieno[2,3-c]pyridin-2-yl]-3-(2-methoxy-phenyl)-propionamide] | ≤ 0.3 | > 100
5 | COc1ccccc1C(C)CC(=O)Nc1sc2c(c1C#N)CCN(C(=O)CCn1ccnc1C)C2 (racemic) [Example 105, (RS)—N-{3-Cyano-6-[3-(2-methyl-imidazol-1-yl)-propanoyl]-4,5,6,7-tetrahydro-thieno[2,3-c]pyridin-2-yl}-3-(2-methoxy-phenyl)-butyramide] | 0.3 to 2 | ≥ 10
6 | COc1ccc(C)cc1CCC(=O)Nc1sc2c(c1C#N)CCN(C(=O)CCn1cc(C)nc1C)C2 [Example 163, N-{3-Cyano-6-[3-(2,4-dimethyl-imidazol-1-yl)-propanoyl]-4,5,6,7-tetrahydro-thieno[2,3-c]pyridin-2-yl}-3-(2-methoxy-5-methyl-phenyl)-propionamide] | 0.3 to 2 | ≥ 10
